Experimental data published in ChEMBL document CHEMBL3045816, “Synthesis and antimicrobial screening of 5-(benzylidene)-3-phenylthiazolidin-4-one derivatives incorporating thiazole ring” (Med Chem Res, 2013).
Values after ≈ are worked out from the molar mass of the structure shown.

Key:
[1] = system: Aspergillus clavatus; assay: Antimicrobial activity against Aspergillus clavatus MTCC 1323 assessed as growth inhibition after 48 hr; type: functional; details: MTCC 1323, 48 h
[2] = system: Aspergillus niger; assay: Antimicrobial activity against Aspergillus niger MTCC 282 assessed as growth inhibition after 48 hr; type: functional; details: MTCC 282, 48 h
[3] = system: Candida albicans; assay: Antimicrobial activity against Candida albicans MTCC 227 assessed as growth inhibition after 48 hr; type: functional; details: MTCC 227, 48 h
[4] = system: Streptococcus pyogenes; assay: Antimicrobial activity against Streptococcus pyogenes MTCC 442 assessed as growth inhibition after 24 hr by turbidimetric method; type: functional; details: MTCC 442, 24 h
[5] = system: Staphylococcus aureus; assay: Antimicrobial activity against Staphylococcus aureus MTCC 96 assessed as growth inhibition after 24 hr by turbidimetric method; type: functional; details: MTCC 96, 24 h
[6] = system: Pseudomonas aeruginosa; assay: Antimicrobial activity against Pseudomonas aeruginosa MTCC 1688 assessed as growth inhibition after 24 hr by turbidimetric method; type: functional; details: MTCC 1688, 24 h
[7] = system: Escherichia coli; assay: Antimicrobial activity against Escherichia coli MTCC 443 assessed as growth inhibition after 24 hr by turbidimetric method; type: functional; details: MTCC 443, 24 h
[8] = system: HepG2; assay: Cytotoxicity against Homo sapiens (human) HepG2 cells by SRB assay; type: cell-based
[9] = system: HL-60; assay: Cytotoxicity against Homo sapiens (human) HL60 cells by SRB assay; type: cell-based
[10] = system: A549; assay: Cytotoxicity against Homo sapiens (human) A549 cells by SRB assay; type: cell-based

Row | Compound | MIC [1] [µg/mL] | MIC [2] [µg/mL] | MIC [3] [µg/mL] | MIC [4] [µg/mL] | MIC [5] [µg/mL] | MIC [6] [µg/mL] | MIC [7] [µg/mL] | Activity [8] | Activity [9] | Activity [10]
1 | COc1ccc(C(=O)Nc2nc(C)c(C(=O)N/N=C3\S/C(=C\c4ccc([N+](=O)[O-])cc4)C(=O)N3c3ccccc3)s2)cc1 | 500 (≈ 813 µM) | 500 (≈ 813 µM) | 500 (≈ 813 µM) | 500 (≈ 813 µM) | 500 (≈ 813 µM) | 500 (≈ 813 µM) | 250 (≈ 407 µM) |  |  | 
2 | COc1ccc(C(=O)Nc2nc(C)c(C(=O)N/N=C3\S/C(=C\c4ccc(F)cc4)C(=O)N3c3ccccc3)s2)cc1 | 500 (≈ 851 µM) | 250 (≈ 425 µM) | 500 (≈ 851 µM) | 250 (≈ 425 µM) | 500 (≈ 851 µM) | 250 (≈ 425 µM) | 500 (≈ 851 µM) |  |  | 
3 | COc1ccc(C(=O)Nc2nc(C)c(C(=O)N/N=C3\S/C(=C\c4ccc(O)cc4)C(=O)N3c3ccccc3)s2)cc1 | 250 (≈ 427 µM) | 100 (≈ 171 µM) | 250 (≈ 427 µM) | 250 (≈ 427 µM) | 50 (≈ 85.4 µM) | 250 (≈ 427 µM) | 50 (≈ 85.4 µM) | Non-toxic | Non-toxic | Non-toxic
4 | COc1ccc(C(=O)Nc2nc(C)c(C(=O)N/N=C3\S/C(=C\c4ccccc4C)C(=O)N3c3ccccc3)s2)cc1 | 100 (≈ 171 µM) | 100 (≈ 171 µM) | 100 (≈ 171 µM) | 100 (≈ 171 µM) | 250 (≈ 428 µM) | 25 (≈ 42.8 µM) | 25 (≈ 42.8 µM) | Non-toxic | Non-toxic | Non-toxic
5 | COc1ccc(C(=O)Nc2nc(C)c(C(=O)N/N=C3\S/C(=C\c4cccc(C)c4)C(=O)N3c3ccccc3)s2)cc1 | 250 (≈ 428 µM) | 250 (≈ 428 µM) | 250 (≈ 428 µM) | 100 (≈ 171 µM) | 250 (≈ 428 µM) | 250 (≈ 428 µM) | 100 (≈ 171 µM) |  |  | 
6 | COc1ccc(C(=O)Nc2nc(C)c(C(=O)N/N=C3\S/C(=C\c4ccc(C)cc4)C(=O)N3c3ccccc3)s2)cc1 | 25 (≈ 42.8 µM) | 25 (≈ 42.8 µM) | 100 (≈ 171 µM) | 50 (≈ 85.7 µM) | 50 (≈ 85.7 µM) | 50 (≈ 85.7 µM) | 12.5 (≈ 21.4 µM) | Non-toxic | Non-toxic | Non-toxic
7 | COc1ccc(C(=O)Nc2nc(C)c(C(=O)N/N=C3\S/C(=C\c4ccccc4OC)C(=O)N3c3ccccc3)s2)cc1 | 100 (≈ 167 µM) | 100 (≈ 167 µM) | 100 (≈ 167 µM) | 100 (≈ 167 µM) | 100 (≈ 167 µM) | 100 (≈ 167 µM) | 250 (≈ 417 µM) | Non-toxic | Non-toxic | Non-toxic
8 | COc1ccc(C(=O)Nc2nc(C)c(C(=O)N/N=C3\S/C(=C\c4cccc(OC)c4)C(=O)N3c3ccccc3)s2)cc1 | 250 (≈ 417 µM) | 250 (≈ 417 µM) | 500 (≈ 834 µM) | 250 (≈ 417 µM) | 250 (≈ 417 µM) | 250 (≈ 417 µM) | 50 (≈ 83.4 µM) |  |  | 
9 | COc1ccc(/C=C2\S/C(=N\NC(=O)c3sc(NC(=O)c4ccc(OC)cc4)nc3C)N(c3ccccc3)C2=O)cc1 | 50 (≈ 83.4 µM) | 100 (≈ 167 µM) | 50 (≈ 83.4 µM) | 50 (≈ 83.4 µM) | 100 (≈ 167 µM) | 50 (≈ 83.4 µM) | 25 (≈ 41.7 µM) | Non-toxic | Non-toxic | Non-toxic
10 | COc1ccc(C(=O)Nc2nc(C)c(C(=O)N/N=C3\S/C(=C\c4ccccc4Cl)C(=O)N3c3ccccc3)s2)cc1 | 250 (≈ 414 µM) | 250 (≈ 414 µM) | 500 (≈ 828 µM) | 500 (≈ 828 µM) | 250 (≈ 414 µM) | 250 (≈ 414 µM) | 250 (≈ 414 µM) |  |  | 
11 | COc1ccc(C(=O)Nc2nc(C)c(C(=O)N/N=C3\S/C(=C\c4ccc(Cl)cc4)C(=O)N3c3ccccc3)s2)cc1 | 500 (≈ 828 µM) | 500 (≈ 828 µM) | 500 (≈ 828 µM) | 500 (≈ 828 µM) | 250 (≈ 414 µM) | 500 (≈ 828 µM) | 500 (≈ 828 µM) |  |  | 
12 | COc1ccc(C(=O)Nc2nc(C)c(C(=O)N/N=C3\S/C(=C\c4ccccc4[N+](=O)[O-])C(=O)N3c3ccccc3)s2)cc1 | 250 (≈ 407 µM) | 250 (≈ 407 µM) | 1000 (≈ 1630 µM) | 250 (≈ 407 µM) | 500 (≈ 813 µM) | 250 (≈ 407 µM) | 500 (≈ 813 µM) |  |  | 
13 | COc1ccc(C(=O)Nc2nc(C)c(C(=O)NN)s2)cc1 | 1000 (≈ 3260 µM) | > 1000 | 1000 (≈ 3260 µM) | 1000 (≈ 3260 µM) | > 1000 | 1000 (≈ 3260 µM) | > 1000 |  |  | 
14 | COc1ccc(C(=O)Nc2nc(C)c(C(=O)NNC(=S)Nc3ccccc3)s2)cc1 | > 1000 | 1000 (≈ 2260 µM) | 1000 (≈ 2260 µM) | 500 (≈ 1130 µM) | 500 (≈ 1130 µM) | 500 (≈ 1130 µM) | 500 (≈ 1130 µM) |  |  | 
15 | COc1ccc(C(=O)Nc2nc(C)c(C(=O)N/N=C3\SCC(=O)N3c3ccccc3)s2)cc1 | 250 (≈ 519 µM) | 1000 (≈ 2080 µM) | 1000 (≈ 2080 µM) | 500 (≈ 1040 µM) | 500 (≈ 1040 µM) | 500 (≈ 1040 µM) | 250 (≈ 519 µM) |  |  | 
16 | COc1ccc(C(=O)Nc2nc(C)c(C(=O)N/N=C3\S/C(=C\c4ccccc4)C(=O)N3c3ccccc3)s2)cc1 | 500 (≈ 878 µM) | 500 (≈ 878 µM) | 500 (≈ 878 µM) | 250 (≈ 439 µM) | 500 (≈ 878 µM) | 500 (≈ 878 µM) | 250 (≈ 439 µM) |  |  | 
17 | COc1ccc(C(=O)Nc2nc(C)c(C(=O)N/N=C3\S/C(=C\c4ccccc4O)C(=O)N3c3ccccc3)s2)cc1 | 250 (≈ 427 µM) | 250 (≈ 427 µM) | 500 (≈ 854 µM) | 100 (≈ 171 µM) | 250 (≈ 427 µM) | 250 (≈ 427 µM) | 100 (≈ 171 µM) |  |  | 
18 | COc1ccc(C(=O)Nc2nc(C)c(C(=O)N/N=C3\S/C(=C\c4cccc(O)c4)C(=O)N3c3ccccc3)s2)cc1 | 100 (≈ 171 µM) | 250 (≈ 427 µM) | 500 (≈ 854 µM) | 250 (≈ 427 µM) | 100 (≈ 171 µM) | 100 (≈ 171 µM) | 100 (≈ 171 µM) |  |  | 
19 | O=C(O)c1cn(C2CC2)c2cc(N3CCNCC3)c(F)cc2c1=O [CIPROFLOXACIN] |  |  |  | 50 (≈ 151 µM) | 50 (≈ 151 µM) |  | 25 (≈ 75.4 µM) |  |  | 
20 | COC1=CC(=O)C[C@@H](C)[C@]12Oc1c(Cl)c(OC)cc(OC)c1C2=O [GRISEOFULVIN] | 100 (≈ 283 µM) | 100 (≈ 283 µM) | 500 (≈ 1420 µM) |  |  |  |  |  |  | 
